Tests used:
Assay in all cases: relative viability (nuclei count vs DMSO), 5 days (fraction); higher = more cells survive
[1] = tested on: NCI-H1915
In short: (§1)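 Lung cancer cell lines were seeded in 1536-well plates and dosed by pin tool the next day, with either a single drug or a fixed anchor-drug dose combined with five library-drug doses (not always all listed) spaced in √10 steps. Five days later, one step fixed the cells and stained their nuclei (final 0.05% Triton X-100, 1% formaldehyde, 1 ug/ml Hoechst), and nuclei were counted on 4× images. Relative viability is the nuclei count in treated wells divided by the count in vehicle wells, and each value is the median of duplicate plates.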

[2] = tested on: NCI-H23
In short: as §1

[3] = tested on: NCI-H2228
In short: as §1

[4] = tested on: NCI-H460
In short: as §1

[5] = tested on: CAL-12T
In short: as §1

[6] = tested on: SK-LU-1
In short: as §1

[7] = tested on: EMC-BAC-2
In short: as §1

[8] = tested on: NCI-H1437
In short: as §1

[9] = tested on: NCI-H1792
In short: as §1

[10] = tested on: HCC-827
In short: as §1

[11] = tested on: NCI-H1975
In short: as §1

Q: With `CC1(C)CCC(c2ccc(Cl)cc2)=C(CN2CCN(c3ccc(C(=O)NS(=O)(=O)c4ccc(N[C@H](CCN5CCOCC5)CSc5ccccc5)c(S(=O)(=O)C(F)(F)F)c4)cc3)CC2)C1` [Navitoclax] + CS(=O)(=O)CCNCc1ccc(-c2ccc3ncnc(Nc4ccc(OCc5cccc(F)c5)c(Cl)c4)c3c2)o1 [Lapatinib] (partner 2 µM) as the compound, how does the relative viability ([1]; first compound 0.005 µM) read?
A: 0.915

Q: And the relative viability ([1]; first compound 0.01581 µM)?
A: 0.953

Q: What about the relative viability ([1]; first compound 0.05 µM) of the same compound?
A: 0.819

Q: And the relative viability ([1]; first compound 0.1581 µM)?
A: 0.862

Q: And the relative viability ([1]; first compound 0.5 µM)?
A: 0.868

Q: What about the relative viability ([2]; first compound 0.005 µM) of the same compound?
A: 1.05

Q: What about the relative viability ([2]; first compound 0.01581 µM) of the same compound?
A: 1.05

Q: And the relative viability ([2]; first compound 0.05 µM)?
A: 1.11

Q: And the relative viability ([2]; first compound 0.1581 µM)?
A: 1.05

Q: What about the relative viability ([2]; first compound 0.5 µM) of the same compound?
A: 1.09

Q: And the relative viability ([3]; first compound 0.005 µM)?
A: 1.09

Q: What about the relative viability ([3]; first compound 0.01581 µM) of the same compound?
A: 0.9

Q: And the relative viability ([3]; first compound 0.05 µM)?
A: 1.14

Q: And the relative viability ([3]; first compound 0.1581 µM)?
A: 0.893

Q: And the relative viability ([3]; first compound 0.5 µM)?
A: 1.03

Q: And the relative viability ([4]; first compound 0.005 µM)?
A: 0.909

Q: What about the relative viability ([4]; first compound 0.01581 µM) of the same compound?
A: 0.917

Q: What about the relative viability ([4]; first compound 0.05 µM) of the same compound?
A: 1.09

Q: And the relative viability ([4]; first compound 0.1581 µM)?
A: 0.892

Q: What about the relative viability ([4]; first compound 0.5 µM) of the same compound?
A: 0.905

Q: What about the relative viability ([5]; first compound 0.005 µM) of the same compound?
A: 0.751

Q: And the relative viability ([5]; first compound 0.01581 µM)?
A: 0.504

Q: And the relative viability ([5]; first compound 0.05 µM)?
A: 0.589

Q: What about the relative viability ([5]; first compound 0.1581 µM) of the same compound?
A: 0.738

Q: And the relative viability ([5]; first compound 0.5 µM)?
A: 0.637

Q: What about the relative viability ([6]; first compound 0.005 µM) of the same compound?
A: 0.849

Q: And the relative viability ([6]; first compound 0.01581 µM)?
A: 1.12

Q: What about the relative viability ([6]; first compound 0.05 µM) of the same compound?
A: 0.886

Q: What about the relative viability ([6]; first compound 0.1581 µM) of the same compound?
A: 0.896

Q: What about the relative viability ([6]; first compound 0.5 µM) of the same compound?
A: 0.753

Q: What about the relative viability ([7]; first compound 0.005 µM) of the same compound?
A: 0.895

Q: And the relative viability ([7]; first compound 0.01581 µM)?
A: 0.893

Q: What about the relative viability ([7]; first compound 0.05 µM) of the same compound?
A: 0.884

Q: What about the relative viability ([7]; first compound 0.1581 µM) of the same compound?
A: 0.963

Q: And the relative viability ([7]; first compound 0.5 µM)?
A: 0.943

Q: What about the relative viability ([8]; first compound 0.005 µM) of the same compound?
A: 0.729

Q: And the relative viability ([8]; first compound 0.01581 µM)?
A: 0.759

Q: And the relative viability ([8]; first compound 0.05 µM)?
A: 0.822

Q: And the relative viability ([8]; first compound 0.1581 µM)?
A: 0.819

Q: What about the relative viability ([8]; first compound 0.5 µM) of the same compound?
A: 0.831

Q: What about the relative viability ([9]; first compound 0.005 µM) of the same compound?
A: 0.901

Q: And the relative viability ([9]; first compound 0.01581 µM)?
A: 1.05

Q: What about the relative viability ([9]; first compound 0.05 µM) of the same compound?
A: 0.662

Q: What about the relative viability ([9]; first compound 0.1581 µM) of the same compound?
A: 0.938

Q: And the relative viability ([9]; first compound 0.5 µM)?
A: 0.878

Q: And the relative viability ([10]; first compound 0.005 µM)?
A: 0.199

Q: And the relative viability ([10]; first compound 0.01581 µM)?
A: 0.2

Q: What about the relative viability ([10]; first compound 0.05 µM) of the same compound?
A: 0.194

Q: What about the relative viability ([10]; first compound 0.1581 µM) of the same compound?
A: 0.21

Q: What about the relative viability ([10]; first compound 0.5 µM) of the same compound?
A: 0.196

Q: What about the relative viability ([11]; first compound 0.005 µM) of the same compound?
A: 0.859

Q: What about the relative viability ([11]; first compound 0.01581 µM) of the same compound?
A: 1.02

Q: And the relative viability ([11]; first compound 0.05 µM)?
A: 1.23

Q: What about the relative viability ([11]; first compound 0.1581 µM) of the same compound?
A: 0.8

From the supplement of paper PMC10307832
